Reference: US20240109881A1, “Heteroaryl Compounds as Ligand Directed Degraders of IRAK4” (Bristol-Myers Squibb Company, priority 2022, published 2024)

Molecular target: T1, IRAK4 (Homo sapiens, UniProt Q9NWZ3)
T1 construct: endogenous in cells; host or cells: THP-1 cells
T1 sequence (Q9NWZ3 1-460): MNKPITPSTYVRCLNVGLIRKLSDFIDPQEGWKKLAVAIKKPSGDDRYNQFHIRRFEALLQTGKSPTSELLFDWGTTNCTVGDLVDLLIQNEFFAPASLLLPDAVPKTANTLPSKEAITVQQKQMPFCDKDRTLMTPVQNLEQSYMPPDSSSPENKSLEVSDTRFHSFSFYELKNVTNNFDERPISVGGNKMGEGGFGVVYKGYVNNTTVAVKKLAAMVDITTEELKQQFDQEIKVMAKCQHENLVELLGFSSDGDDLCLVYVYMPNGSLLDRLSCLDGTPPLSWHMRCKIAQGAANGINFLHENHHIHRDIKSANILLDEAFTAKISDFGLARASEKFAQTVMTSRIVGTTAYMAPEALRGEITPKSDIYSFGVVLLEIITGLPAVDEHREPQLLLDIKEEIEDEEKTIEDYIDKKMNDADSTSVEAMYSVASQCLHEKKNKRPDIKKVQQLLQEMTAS
Assay: LVL THP1 HTRF (THP1 Homogeneous Time Resolved Fluorescence)
Format: cell-based
Conditions: THP1 cells, 18 h incubation with compound; for DC50: read-out: LVL THP1 HTRF EC50
How it was run: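 THP-1 cells in phenol red-free RPMI with 10% FBS were dosed with compound (20 nL in DMSO) for 18 h at 37° C. After 2 h lysis, IRAK4 was detected with anti-IRAK4-d2/anti-IRAK4-K HTRF antibodies for 18 h at room temperature and read at 665/615 nm; a parallel CTG plate was run.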

## COc1cc(N2CCN(CC[C@H]3CC[C@H](c4cn(-c5cnc(-n6ncc7cc(C#N)cnc76)cc5N[C@H](C)C#N)nn4)CC3)CC2)ccc1N1CCC(=O)NC1=O [P-443]
  LVL THP1 HTRF YMIN: −0.6%
  DC50: 0.0045 µM

## C[C@H](C#N)Nc1cc(-n2ncc3cc(C#N)cnc32)ncc1-n1cc([C@H]2CC[C@H](CCN3CC4(CC(c5ccc(N6CCC(=O)NC6=O)c(F)c5)C4)C3)CC2)nn1 [P-444]
  LVL THP1 HTRF YMIN: −1.6%
  DC50: 0.0052 µM

## CC[C@H]1CN(CC[C@H]2CC[C@H](c3cn(-c4cnc(-n5ncc6cc(C#N)cnc65)cc4N[C@H](C)C#N)nn3)CC2)CCN1c1ccc(N2CCC(=O)NC2=O)cc1 [P-445]
  LVL THP1 HTRF YMIN: 4.0%
  DC50: 0.0658 µM

## CC[C@@H]1CN(CC[C@H]2CC[C@H](c3cn(-c4cnc(-n5ncc6cc(C#N)c(N)nc65)cc4N[C@H](C)C#N)nn3)CC2)CCN1c1ccc(N2CCC(=O)NC2=O)cn1 [P-446]
  LVL THP1 HTRF YMIN: −1.4%
  DC50: 0.0014 µM

## CC[C@@H]1CN(CC[C@H]2CC[C@H](c3cn(-c4cnc(-n5ncc6cc(C#N)c(N)nc65)cc4N[C@H](C)C#N)nn3)CC2)CCN1c1ccc(N2CCC(=O)NC2=O)cc1 [P-447]
  LVL THP1 HTRF YMIN: 0.8%
  DC50: 0.0006 µM

## C[C@H](C#N)Nc1cc(-n2ncc3cc(C#N)cnc32)ncc1-n1cc([C@H]2CC[C@H](CCN3CCC4(C3)CN(c3ccc([C@@]5(C)CCC(=O)NC5=O)cc3)C4)CC2)nn1 [P-448]
  LVL THP1 HTRF YMIN: 3.9%
  DC50: 0.0321 µM

## C[C@H](C#N)Nc1cc(-n2ncc3cc(C#N)cnc32)ncc1-n1cc([C@H]2CC[C@H](CCN3CC4(CC(c5ccc(N6CCC(=O)NC6=O)cn5)C4)C3)CC2)nn1 [P-449]
  LVL THP1 HTRF YMIN: 23.7%
  DC50: 0.424 µM

## CC[C@@H]1CN(CC[C@H]2CC[C@H](c3cn(-c4cnc(-n5ncc6cc(C#N)cnc65)cc4N[C@H](C)C#N)nn3)CC2)CCN1c1ccc(C2CCC(=O)NC2=O)cc1 (stereo partly drawn) [P-452]
  LVL THP1 HTRF YMIN: 0.5%
  DC50: 0.0019 µM

## C[C@H](C#N)Nc1cc(Nc2ncc(C#N)cc2Cl)ncc1-n1cc([C@H]2CC[C@H](CCN3CCN(c4ccc(N5CCC(=O)NC5=O)cn4)[C@H](C)C3)CC2)nn1 [P-455]
  LVL THP1 HTRF YMIN: −5.9%
  DC50: 0.0078 µM

## C[C@H](C#N)Nc1cc(-n2ncc3cc(C#N)cnc32)ncc1-n1cc([C@H]2CC[C@H](CCN3CC[C@@H](Oc4ccc(N5CCC(=O)NC5=O)cc4)C3)CC2)nn1 [P-458]
  LVL THP1 HTRF YMIN: 15.0%
  DC50: 0.128 µM

## C[C@H](C#N)Nc1cc(-n2ncc3cc(C#N)cnc32)ncc1-n1cc([C@H]2CC[C@H](CCN3CCN(c4ccc(N5CCC(=O)NC5=O)cc4)C[C@H]3C)CC2)nn1 [P-459]
  LVL THP1 HTRF YMIN: −0.5%
  DC50: 0.0025 µM

## C[C@H](C#N)Nc1cc(-n2ncc3cc(C#N)c(N)nc32)ncc1-n1cc([C@H]2CC[C@H](CCN3CCN(c4ccc(N5CCC(=O)NC5=O)cn4)[C@H](C)C3)CC2)nn1 [P-463]
  LVL THP1 HTRF YMIN: −3.4%
  DC50: 0.0001 µM

## C[C@H](C#N)Nc1cc(-n2ncc3cc(C#N)cnc32)ncc1-n1cc([C@H]2CC[C@H](CCN3CC[C@H](Oc4ccc(N5CCC(=O)NC5=O)cc4)C3)CC2)nn1 [P-465]
  LVL THP1 HTRF YMIN: 18.9%
  DC50: 0.293 µM

## C[C@H](C#N)Nc1cc(-n2ncc3cc(C#N)cnc32)ncc1-n1cc([C@H]2CC[C@H](CCN3CCN(c4ccc(N5CCC(=O)NC5=O)cc4)C[C@@H]3C)CC2)nn1 [P-468]
  LVL THP1 HTRF YMIN: 2.3%
  DC50: 0.0172 µM

## C[C@H](C#N)Nc1cc(-n2ncc3cc(C#N)cnc32)ncc1-n1cc([C@H]2CC[C@H](CCN3CCC4(c5ccc(N6CCC(=O)NC6=O)cc5)CC4C3)CC2)nn1 (stereo partly drawn) [P-471]
  LVL THP1 HTRF YMIN: 7.7%
  DC50: 0.0879 µM

## C[C@H](C#N)Nc1cc(Nc2ncc(C#N)cc2Cl)ncc1-n1cc([C@H]2CC[C@H](CCN3CC4(CC(c5ccc(N6CCC(=O)NC6=O)cn5)C4)C3)CC2)nn1 [P-473]
  LVL THP1 HTRF YMIN: 15.5%
  DC50: 1 µM

## C[C@H](C#N)Nc1cc(-n2ncc3cc(C#N)cnc32)ncc1C(=O)N[C@H]1CC[C@H](CCN2CC[C@H]3[C@@H]2CCN3c2ccc(N3CCC(=O)NC3=O)c(Cl)c2)CC1 [P-475]
  LVL THP1 HTRF YMIN: 6.4%
  DC50: 0.047 µM

## C[C@H](C#N)Nc1cc(-n2ncc3cc(C#N)cnc32)ncc1-n1cc([C@H]2CC[C@H](CCN3CCC(c4ccc5c(N6CCC(=O)NC6=O)nn(C)c5c4)CC3)CC2)nn1 [P-476]
  LVL THP1 HTRF YMIN: 0.9%
  DC50: 0.002 µM

## C[C@H](C#N)Nc1cc(-n2ncc3cc(C#N)cnc32)ncc1-n1cc([C@H]2CC[C@H](CCN3CC(c4ccc(N5CCC(=O)NC5=O)cc4)C3)CC2)nn1 [P-477]
  LVL THP1 HTRF YMIN: 18.6%
  DC50: 0.263 µM

## C[C@H](C#N)Nc1cc(-n2ncc3cc(C#N)cnc32)ncc1C(=O)N[C@H]1CC[C@H](CCN2CC[C@H]3[C@@H]2CCN3c2ccc(N3CCC(=O)NC3=O)c(F)c2)CC1 [P-481]
  LVL THP1 HTRF YMIN: 9.4%
  DC50: 0.038 µM

## C[C@H](C#N)Nc1cc(-n2ncc3cc(C#N)cnc32)ncc1-n1cc([C@H]2CC[C@H](CCN3C[C@@H](C)N(c4ccc(N5CCC(=O)NC5=O)cc4)C[C@@H]3C)CC2)nn1 [P-483]
  LVL THP1 HTRF YMIN: 3.4%
  DC50: 0.011 µM

## C[C@H](C#N)Nc1cc(-n2ncc3cc(C#N)cnc32)ncc1C(=O)N[C@H]1CC[C@H](CCN2CC[C@H]3[C@@H]2CCN3c2ccc(N3CCC(=O)NC3=O)c(F)c2)CC1 [P-484]
  LVL THP1 HTRF YMIN: 52.3%
  DC50: 1 µM

## C[C@H](C#N)Nc1cc(N2CCc3cc(C#N)cnc32)ncc1-n1cc([C@H]2CC[C@H](CCN3CCN(c4ccc(N5CCC(=O)NC5=O)cc4)CC3)CC2)nn1 [P-486]
  LVL THP1 HTRF YMIN: 24.9%
  DC50: 0.2 µM

## Cc1cc(N2CC[C@H]3[C@@H]2CCN3CC[C@H]2CC[C@H](NC(=O)c3cnc(-n4ncc5cc(C#N)cnc54)cc3N[C@H](C)C#N)CC2)ccc1N1CCC(=O)NC1=O [P-489]
  LVL THP1 HTRF YMIN: 84.3%
  DC50: 1 µM

## Cc1cc(N2CC[C@H]3[C@@H]2CCN3CC[C@H]2CC[C@H](NC(=O)c3cnc(-n4ncc5cc(C#N)cnc54)cc3N[C@H](C)C#N)CC2)ccc1N1CCC(=O)NC1=O [P-490]
  LVL THP1 HTRF YMIN: 81.6%
  DC50: 1 µM

## C[C@H](C#N)Nc1cc(-n2ncc3cc(C#N)cnc32)ncc1-n1cc([C@H]2CC[C@H](CCN3C[C@@H](C)N(c4ccc(N5CCC(=O)NC5=O)cc4)C[C@H]3C)CC2)nn1 [P-496]
  LVL THP1 HTRF YMIN: 2.7%
  DC50: 0.127 µM

## C[C@H](C#N)Nc1cc(-n2ncc3cc(C#N)cnc32)ncc1-n1cc([C@H]2CC[C@H](CCN3CCN(c4ccc5c(N6CCC(=O)NC6=O)nn(C)c5c4)[C@H](C)C3)CC2)nn1 [P-498]
  LVL THP1 HTRF YMIN: −2.8%
  DC50: 0.002 µM

## C[C@H](C#N)Nc1cc(-n2ncc3cc(C#N)cnc32)ncc1-n1cc(C2CCC(N3CCN(c4ccc(N5CCC(=O)NC5=O)cc4)CC3)CC2)nn1 (stereo partly drawn) [P-499, 1-(4-(((R)-1-cyanoethyl)amino)-5-(4-(4-(4-(4-(2,4-dioxotetrahydropyrimidin-1(2H)-yl)phenyl)piperazin-1-yl)cyclohexyl)-1H-1,2,3-triazol-1-yl)pyridin-2-yl)-1H-pyrazolo[3,4-b]pyridine-5-carbonitrile]
  LVL THP1 HTRF YMIN: 13.6%
  DC50: 0.172 µM

## C[C@H](C#N)Nc1cc(-n2ncc3cc(C#N)cnc32)ncc1-c1cn([C@H]2CC[C@H](CCN3CCN(c4ccc(N5CCC(=O)NC5=O)cc4)[C@H](C)C3)CC2)nn1 [P-501]
  LVL THP1 HTRF YMIN: −2.28%
  DC50: 0.0022 µM

## C[C@H](C#N)Nc1cc(-n2ncc3cc(C#N)cnc32)ncc1-n1cc([C@H]2CC[C@H](CCN3CCN(c4ccc5c(N6CCC(=O)NC6=O)nn(C)c5c4)[C@@H](C)C3)CC2)nn1 [P-502]
  LVL THP1 HTRF YMIN: −0.79%
  DC50: 0.0012 µM
